Experimental data: EP2216341A1, “Transferrin variants and conjugates” (Novozymes Biopharma UK Limited, priority 2009, dated 2010)

Key:
[1] = test system: K562 erythroleukemic cells; experiment: 55Fe uptake from labeled diferric transferrin in erythroleukemic K562 cells; type: cell-based, human; conditions: 25 minutes at 37°C
Experimental: Human plasma-derived apo-transferrin (Calbiochem 616419, tissue culture grade, pyrogen-free) is supplied lyophilised from 10mM phosphate buffer, pH7.4. The transferrin mutein is expressed, purified and quantified as described above.
For iron-55 uptake from labeled diferric transferrin, K562 erythroleukemic cells, cultured in RPMI cell culture medium under standard conditions (bicarbonate-buffered, 5% (v/v) CO2, antibiotics, 10% (v/v) fetal calf serum) are washed with serum-free medium containing HEPES-buffer and 1 mg/ml of bovine serum albumin and used at a concentration of 10 million cells/ml in this medium. The samples tested are prepared as equimolar concentrations of apo-transferrin mutein. Apo-transferrin mutein is loaded with iron according to a standard procedure (Bates and Schlabach, J Biol Chem, 248, 3228-3232, 1973) using ferric nitrilotriacetate as iron source. Typically 50µl of 1 M NaClO4 is added to 450µl of the transferrin mutein stock-solution (pH is alkaline to neutral). The ^55Fe -NTA-loading-buffer is prepared by mixing 8.5µl 50mM NTA (pH 8.25), 18.9µl 0.1M Tris, 98.8µl Millipore-purified water and 7.5µl ^55FeCl3 in 0.5 N HCl (NEN products). 500µl of transferrin mutein is carefully mixed (dropwise) with the ^55Fe -NTA-loading-buffer and then 310µl of 5mM Hepes. NaOH/0.1M NaClO4 is added. The mixture is incubated at 4°C for 60 min following which it is deslated on a PD-10 column (containing Sephadex G-25) and dialysed. The PD-10 column is equilibrated with 5ml of equilibration buffer (5mM Hepes/NaOH, 0.1M NaClO4, 0.1 g BSA (Amresco)) then washed three times with 5ml of wash buffer (5mM Hepes/NaOH, 0.1M NaClO4). […]
Increasing concentrations of human plasma transferrin or the transferrin mutein sample (0, 25, 100, 200, 400, 800, 1600 nM), labeled with ^55Fe, are mixed with 25 µl of medium. […] The lysates are neutralized with 1 M HCl after overnight lysis, mixed with Readysolv Scintillation cocktail and counted in the Packard Liquid Scintillation Counter. […]

[2] = biological target: T1, transferrin receptor 1 (TfR1) (Homo sapiens, UniProt P02786); experiment: Transferrin receptor 1 binding by Surface Plasmon Resonance (SPR, Biacore); conditions: fluorescein conjugated sample
T1 construct: purchased AbD Serotec 9110-300
From the text: The receptor binding capability of the recombinant transferrin variants can be determined by Surface Plasmon Resonance (SPR) analysis. The binding activity of a transferrin sample to a transferrin receptor can be measured using surface plasmon resonance (SPR) a non-invasive optical technique in which the SPR response is a measure of change in mass concentration at the detector surface as molecules bind or dissociate. A sample is sent onto the surface of the sensor chip via a micro flow system at a constant flow rate. In this analysis, if the transferrin sample is able to bind to the Transferrin Receptor the mass on the surface sensor chip is increased due to binding between Transferrin Receptor and Transferrin molecules creating a surface plasmon wave, and a shift of the SPR signal proportional to the binding quantity can be detected as a change in the resonance unit (RU). […]
The binding capacity of human serum transferrin to human trabnsferrin receptor 1 may be measured by SPR. […]
The receptor binding capability of the recombinant transferrin variants was assessed by Surface Plasmon Resonance (SPR) analysis. The binding activity of a transferrin sample to transferrin receptor can be measured using surface plasmon resonance (SPR) a non-invasive optical technique in which the SPR response is a measure of change in mass concentration at the detector surface as molecules bind or dissociate. […]

T1 sequence (P02786 whole entry): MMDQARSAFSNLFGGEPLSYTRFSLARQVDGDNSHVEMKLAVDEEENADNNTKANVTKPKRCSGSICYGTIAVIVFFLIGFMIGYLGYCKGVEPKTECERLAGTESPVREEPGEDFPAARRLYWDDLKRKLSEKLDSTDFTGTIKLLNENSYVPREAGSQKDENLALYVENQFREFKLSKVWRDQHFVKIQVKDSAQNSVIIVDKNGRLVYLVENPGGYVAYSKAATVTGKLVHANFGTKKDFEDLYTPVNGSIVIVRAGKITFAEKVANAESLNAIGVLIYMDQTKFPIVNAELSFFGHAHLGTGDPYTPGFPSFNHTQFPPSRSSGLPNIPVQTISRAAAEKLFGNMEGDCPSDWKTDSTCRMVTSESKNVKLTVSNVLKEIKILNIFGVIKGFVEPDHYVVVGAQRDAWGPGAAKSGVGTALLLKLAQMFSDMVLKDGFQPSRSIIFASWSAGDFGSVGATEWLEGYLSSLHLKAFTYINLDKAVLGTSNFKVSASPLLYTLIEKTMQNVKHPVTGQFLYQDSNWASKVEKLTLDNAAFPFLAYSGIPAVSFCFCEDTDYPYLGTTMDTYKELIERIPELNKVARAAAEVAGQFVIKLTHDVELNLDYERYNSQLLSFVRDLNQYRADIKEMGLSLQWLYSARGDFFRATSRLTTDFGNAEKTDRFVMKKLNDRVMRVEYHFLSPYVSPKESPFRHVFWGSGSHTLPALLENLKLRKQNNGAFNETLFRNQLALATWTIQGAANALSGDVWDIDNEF

Substance: Fluorescein conjugated thio-transferrin (S415C, T613A): thiotransferrin (S415C, T613A) conjugated with fluorescein
- Specific iron ptake Bmax ([1]; 55Fe-labeled sample 0-1600 nM, specific uptake (unspecific binding with hundredfold excess unlabeled diferric transferrin accounted for)): 3246±217 fmol^55Fe/10^6 cells 25min
- Total Iron Uptake Bmax ([1]; 55Fe-labeled sample 0-1600 nM, total uptake): 4165±216 fmol^55Fe/10^6 cells x 25min
- Kd ([1]; specific uptake, read-out: Specific iron ptake Kd x): 189 ± 47 nM
- ability to bind to transferrin receptor 1 (measured by SPR) [2]: able to bind to transferrin receptor 1 by SPR analysis in a manner equivalent to the unconjugated sample
